These results are taken from patent US20240226059A1, “COMPOSITION FOR INHIBITING ANGIOGENESIS AND ENHANCING THERAPEUTIC EFFECT OF ANTICANCER DRUGS IN CANCER PATIENT” (KANT SCIENCE INC., priority 2020, published 2024).

Entries after “also recorded” stand apart in the source; their conditions may differ.

Type in all cases: cell-based
In experiment [1] the test system is Breast cancer cells. Kind of experiment: Intracellular acidity (pH) of breast cancer cells at normal or low glucose. The following applies: low-carbohydrate state (glucose 5 nM), in combination with paclitaxel (PTX); FIG. 1, FIG. 2. Here is the method: Breast cancer cells were cultured at a normal glucose (GLU) concentration of […] or a low concentration of […], and intracellular acidity was confirmed with or without the treatment of paclitaxel (PTX), which is an anticancer drug, and cariporide (CAR), which is a drug that regulates intracellular acidity.

Experiment [2] has as its system Breast cancer cells. Nature of the experiment: Cell viability of breast cancer cells at normal or low glucose. The following applies: low-carbohydrate state (glucose 5 nM), in combination with paclitaxel (PTX); FIG. 3. As to the method:
Breast cancer cells were cultured at a normal glucose (GLU) concentration of […] or a low concentration of […], and cell viability was confirmed with and without the treatment of paclitaxel (PTX), which is an anticancer drug, and cariporide (CAR) or curcumin (CUR).

The test system of a further experiment is colorectal cancer cells. Kind of experiment: Anticancer drug resistance (GR50 ratio) of colorectal cancer cells at high or low glucose. Conditions: low glucose (5 nM), in combination with irinotecan; FIG. 4. As to the method: Furthermore, colorectal cancer cells were cultured at a high glucose concentration ([…]) or a low glucose concentration ([…]), and it was confirmed by a growth rate 50 ratio (GR50 ratio) while treating irinotecan, which is an anticancer drug, and cariporide in combination whether the cancer cells had anticancer drug resistance.

As to `CC(C)c1ccc(C(=O)NC(=N)N)cc1S(C)(=O)=O` [cariporide], the intracellular acidity result in the experiment on Breast cancer cells [1] was “maintained normal pH; also recorded: closest to normal”. In addition, the “anticancer effect (cell viability)” value with Breast cancer cells [2] is listed as “best anticancer effect”. In the experiment with colorectal cancer cells, the “anticancer drug resistance (growth rate 50 ratio, GR50 ratio)” value is “overcome anticancer drug resistance” and the cell viability result is “significantly reduce cell viability”.

Consider `COc1cc(/C=C/C(=O)CC(=O)/C=C/c2ccc(O)c(OC)c2)ccc1O` [curcumin], for which the intracellular acidity result in the experiment with Breast cancer cells [1] is recorded as “same effect as cariporide; also recorded: closest to normal”. Also, the “anticancer effect (cell viability)” value in the experiment with Breast cancer cells [2] is recorded as “best anticancer effect”.
